Target: T1, drMfsd2a (Danio rerio isoform B Mfsd2a) (Danio rerio, UniProt Q6DEJ6, N214Q/N225Q/N509Q)
T1 construct: gene mfsd2ab; recombinant in Sf-9 insect cells, N-terminal 10xHis tag removed by TEV; truncated at D22 and D509; DDM-purified
T1 sequence (Q6DEJ6 22-509 N214Q/N225Q/N509Q): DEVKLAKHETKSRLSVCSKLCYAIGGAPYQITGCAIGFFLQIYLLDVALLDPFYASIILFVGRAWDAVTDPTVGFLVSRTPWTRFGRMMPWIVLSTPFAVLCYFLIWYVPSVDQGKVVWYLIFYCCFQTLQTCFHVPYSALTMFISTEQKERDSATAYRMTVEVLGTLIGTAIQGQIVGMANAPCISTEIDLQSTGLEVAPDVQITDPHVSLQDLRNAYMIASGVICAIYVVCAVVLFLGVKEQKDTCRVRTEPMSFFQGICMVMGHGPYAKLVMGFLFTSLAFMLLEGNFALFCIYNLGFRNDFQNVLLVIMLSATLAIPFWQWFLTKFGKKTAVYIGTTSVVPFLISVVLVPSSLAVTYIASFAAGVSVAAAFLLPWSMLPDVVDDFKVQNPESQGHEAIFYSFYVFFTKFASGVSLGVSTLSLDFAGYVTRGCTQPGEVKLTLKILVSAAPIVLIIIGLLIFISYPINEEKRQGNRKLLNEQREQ
Assay: single-particle cryo-EM structures of Fab complex
Type: binding
Details: co-purified endogenous lipid; identity modelled into lipid-like densities at four positions (1A, 1B, 2B, 3C); inward-facing; pH 8.0, 150 mM NaCl, 0.02% DDM

## CC/C=C\C/C=C\C/C=C\CCCCCCCC(=O)OC[C@@H](O)COP(=O)([O-])OCC[N+](C)(C)C [ALA-LPC]
  single-particle cryo-EM structures of Fab complex: We therefore modeled ALA-LPC into the four distinct lipid-like densities
